Toxic doses and inconclusive results are not listed. Cut-off read from the data, not from the text of the source: active = T/C of 150% or more; inactive = T/C below 125%.
Tested on: L1210 leukemia ip in BDF1 mice, survival T/C
Test: NCI In Vivo Anticancer Drug Screen. Data for tumor model L1210 Leukemia (intraperitoneal) in B6D2F1 (BDF1) mice
Conditions: endpoint: mean survival time, higher = longer survival
Method in brief: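 Tumor cells were implanted, animals were treated, and survival was followed. The result divides the treated measurement by the vehicle-control measurement.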

[1] = dose: 100.0 mg/kg/injection, schedule: Q01DX009 (ip), vehicle: Klucel (hydroxypropylcellulose) (HPC)
[2] = dose: 200.0 mg/kg/injection, schedule: Q01DX009 (ip), vehicle: Klucel (hydroxypropylcellulose) (HPC)
[3] = dose: 100.0 mg/kg/injection, schedule: Q04DX003 (ip), vehicle: saline with Tween-80
[4] = dose: 200.0 mg/kg/injection, schedule: Q04DX003 (ip), vehicle: saline with Tween-80
[5] = dose: 400.0 mg/kg/injection, schedule: Q04DX003 (ip), vehicle: saline with Tween-80
[6] = dose: 100.0 mg/kg/injection, schedule: Q04DX003 (ip), vehicle: Klucel (hydroxypropylcellulose) (HPC)
[7] = dose: 200.0 mg/kg/injection, schedule: Q04DX003 (ip), vehicle: Klucel (hydroxypropylcellulose) (HPC)
[8] = dose: 400.0 mg/kg/injection, schedule: Q01DX009 (ip), vehicle: Klucel (hydroxypropylcellulose) (HPC)
[9] = dose: 400.0 mg/kg/injection, schedule: Q04DX003 (ip), vehicle: Klucel (hydroxypropylcellulose) (HPC)

Measured: T/C

CCCCNc1nc(N)nc(Nc2ccc(Br)cc2)c1N=O
inactive: dose: 100.0 mg/kg/injection, schedule: Q01DX001 (ip), vehicle: acetone 103 % of control | dose: 100.0 mg/kg/injection, schedule: Q04DX003 (ip), vehicle: acetone 93 % of control | dose: 200.0 mg/kg/injection, schedule: Q01DX001 (ip), vehicle: acetone 100 % of control | dose: 200.0 mg/kg/injection, schedule: Q04DX003 (ip), vehicle: acetone 94 % of control | dose: 400.0 mg/kg/injection, schedule: Q01DX001 (ip), vehicle: acetone 106 % of control | dose: 400.0 mg/kg/injection, schedule: Q04DX003 (ip), vehicle: acetone 100 % of control

O=c1c2ccccc2sc2c(CO)ccc(NCCN3CCCCC3)c12
inactive: dose: 50.0 mg/kg/injection, schedule: Q01DX009 (ip), vehicle: Klucel (hydroxypropylcellulose) (HPC) 99 % of control | [1] 96 % of control | [2] 120 % of control

CCn1c(N)c(N)c(=O)[nH]c1=S
inactive: [3] 86 % of control | [4] 93 % of control | [5] 86 % of control

COc1cccc(OC)c1C(=O)O
inactive: dose: 100.0 mg/kg/injection, schedule: Q04DX002 (ip), vehicle: Klucel (hydroxypropylcellulose) (HPC) 100 % of control | dose: 200.0 mg/kg/injection, schedule: Q04DX002 (ip), vehicle: Klucel (hydroxypropylcellulose) (HPC) 111 % of control | dose: 400.0 mg/kg/injection, schedule: Q04DX002 (ip), vehicle: Klucel (hydroxypropylcellulose) (HPC) 100 % of control

C(C#CC1CCCCC1)#CC1CCCCC1
inactive: dose: 100.0 mg/kg/injection, schedule: Q01DX009 (ip), vehicle: saline 94 % of control | dose: 200.0 mg/kg/injection, schedule: Q01DX009 (ip), vehicle: saline 91 % of control | dose: 400.0 mg/kg/injection, schedule: Q01DX009 (ip), vehicle: saline 94 % of control

OCCSc1ncnc2nc[nH]c12
inactive: [3] 104 % of control | [4] 98 % of control | [5] 104 % of control

CC1(C)N=C(N)N=C(N)N1c1ccc(OCC(=O)Nc2ccccc2)c(Cl)c1
inactive: [1] 102 % of control | [6] 97 % of control | [2] 94 % of control | [7] 90 % of control | [8] 93 % of control | [9] 92 % of control

O=C1OC(c2ccc([N+](=O)[O-])cc2)=N/C1=C\C=C\c1ccccc1
inactive: [1] 98 % of control | [2] 96 % of control | [8] 103 % of control

Cc1cccc(C2NC(=S)N3C(c4cccc(C)c4)NC(=S)N23)c1 (stereo unspecified)
inactive: dose: 100.0 mg/kg/injection, schedule: Q01DX009 (ip), vehicle: gum acacia 100 % of control | dose: 100.0 mg/kg/injection, schedule: Q04DX003 (ip), vehicle: gum acacia 88 % of control | dose: 200.0 mg/kg/injection, schedule: Q01DX009 (ip), vehicle: gum acacia 100 % of control | dose: 200.0 mg/kg/injection, schedule: Q04DX003 (ip), vehicle: gum acacia 88 % of control | dose: 400.0 mg/kg/injection, schedule: Q01DX009 (ip), vehicle: gum acacia 91 % of control | dose: 400.0 mg/kg/injection, schedule: Q04DX003 (ip), vehicle: gum acacia 87 % of control

CN(C)c1ccc(C2SCSCS2)cc1
inactive: [6] 97 % of control | [7] 101 % of control | [9] 95 % of control

CC(/C=C/c1ccc(O)cc1)=N\O
inactive: dose: 100.0 mg/kg/injection, schedule: Q01DX009 (ip), vehicle: saline with Tween-80 89 % of control | dose: 200.0 mg/kg/injection, schedule: Q01DX009 (ip), vehicle: saline with Tween-80 100 % of control

Source: PubChem BioAssay AID248 (DTP/NCI, 2004)
